Assay results from patent EP0394283B1, “USE OF A TRIPEPTIDE FOR THE PREPARATION OF PHARMACEUTICAL COMPOSITIONS AND A PHARMACEUTICAL COMPOSITION AND METHOD” (Hafslund Nycomed AS, priority 1987, dated 1992).
Residues, ends and D or L forms follow the SMILES beside them.

System: large intestinal epithelium
Assay: Mitotic rate (Colcemid-arrested metaphases per 500 crypt cells) in the large intestinal epithelium after i.p. injection
Type: in vivo, hairless mice
Details: dose of 10⁻¹² mole per animal, at the doses and times tested
Protocol: All in vivo experiments were performed with hairless mice at 0800-0900 AM. The fractions were suspended in distilled water, slightly acidified (pH=6) and injected i.p. at different doses dependent on the purity of the fraction. The controls received solvent only. The pattern of cell proliferation after injecting the peptide was examined by varying the time between treatment and sacrifice.
Two hours before sacrifice (except for the experiments testing tissue specificity in the kidney) all animals received Colcemid 0.15 mg per animal i.p. ³HTdR (tritiated thymidine) was injected 30 minutes before sacrifice (30 µCi per animal i.p.). […]
Mitotic rate: After routine dehydration and paraffin embedding, sections were cut at 5 µm and stained with haematoxylin. Colcemid-arrested mitoses per 500 crypt cells were determined in ten longitudinally cut crypts in ileum and colon. […] The number of accumulated metaphases in epidermis was determined by counting 25 vision fields of interfollicular epidermis (eyepiece 12.5, objective 40) and expressed as mitoses per vision field per 2h.

O=C(O)CC[C@H](NC(=O)[C@@H]1CCC(=O)N1)C(=O)N[C@@H](CC(=O)O)C(=O)N[C@@H](CO)C(=O)NCC(=O)O [pGlu-Glu-Asp-Ser-Gly(OH)] (HELM PEPTIDE1{[Glp].E.D.S.G}$$$$V2.0)
cell proliferation in the large intestinal epithelium: unchanged
